From patent publication US20090048258A1, “Amide Compound” (priority 2005, published 2009) come the findings set out here.

Bounds are passed on as bounds.

The first assay addresses T1, Human DGAT1 (Homo sapiens, UniProt O75907).
T1 construct: my translation of the primer: M-G-DYKDDDD-GDRGSSRRR) (N); made in house; host or cells: Sf9 insect cells (recombinant baculovirus BAC-DGAT1, pFASTBAC1); microsome fraction
T1 sequence (O75907 1-488): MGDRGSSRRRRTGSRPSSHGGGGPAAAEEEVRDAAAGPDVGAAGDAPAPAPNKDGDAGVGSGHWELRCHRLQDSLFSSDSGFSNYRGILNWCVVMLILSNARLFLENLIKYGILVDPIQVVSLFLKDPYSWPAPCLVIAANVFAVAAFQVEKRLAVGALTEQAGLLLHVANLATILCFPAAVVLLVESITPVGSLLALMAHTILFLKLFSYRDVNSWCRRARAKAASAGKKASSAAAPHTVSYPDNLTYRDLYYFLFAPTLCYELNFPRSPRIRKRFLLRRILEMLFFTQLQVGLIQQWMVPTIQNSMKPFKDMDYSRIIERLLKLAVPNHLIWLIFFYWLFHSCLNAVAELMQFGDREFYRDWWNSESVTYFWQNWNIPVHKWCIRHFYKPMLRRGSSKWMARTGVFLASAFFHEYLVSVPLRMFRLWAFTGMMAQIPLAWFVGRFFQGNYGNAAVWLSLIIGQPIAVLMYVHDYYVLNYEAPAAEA
In words: DGAT inhibitory activity: [14C]-triglyceride synthesis by DGAT1 high expression Sf9 microsome. Conditions: Table 1, 25 μM dioleoylglycerol, 25 μM [14C]-Oleoyl-CoA, 32° C., 15 min, read-out: DGAT inhibitory activity (according to IC50). It is filed as biochemical. As to the method:
The primer base sequence is shown below.
The PCR reaction was conducted using a KOD-plus kit (TOYOBO). The obtained PCR product was electrophoresed on agarose gel (1%), the DNA fragment amplified by PCR was recovered from the gel, and then digested with restriction enzymes EcoRI and SpeI. […] Furthermore, using BAC-TO-BAC Baculovirus Expression System (Invitrogen), recombinant baculovirus BAC-DGAT1 was prepared.
SF9 cells were sown at 1×10^6 cells/ml on Sf-900II SEM medium (1 L, Invitrogen) containing 10% fetal calf serum (Trace), 50 mg/L gentamicin (Invitrogen) and 0.1% Pluronic F-68 (Invitrogen), and shaking culture was performed using a 2 L volume Erlenmeyer at 27° C., 100 rpm. After culturing for 24 hr, recombinant baculovirus BAC-DGAT1 (6.7 mL) was added, and the mixture was further cultured for 3 days. The culture medium was centrifuged at 2,000 rpm for 5 min to give virus-infected cells. The infected cells were washed with a phosphate buffered saline (Invitrogen), centrifuged under the same conditions, and the cells were preserved at −80° C. The cryopreserved cells were thawed in ice, suspended in buffer A (50 mM Tris buffer (30 mL, pH 7.4) containing 20% glycerol, 0.15 M NaCl) supplemented with Complete Protease Inhibitor (Boehringer), and ruptured 3 times with a Polytron homogenizer (Kinematica) at 20,000 rpm for 30 sec. The Sf9 microsome fractions were obtained by a conventional method and cryopreserved at −80° C. as a DGAT1 high expression Sf9 microsome.
As a DGAT1 reaction buffer, a solution having a composition of 100 mM Tris-HCl (pH 7.5), 250 mM sucrose, 150 mM MgCl2, 0.01% bovine serum albumin (BSA) was used. […] A mixture of 300 μL of chloroform:methanol (=1:2) was added to the reaction mixture to quench the reaction. The reaction mixture was sufficiently mixed and saline (200 μL) was added to partition the mixture between a chloroform layer (lower layer) and an aqueous layer (upper layer). The chloroform layer (50 μL) was spotted on a thin layer chromatography silica gel plate (TLC plate, Merck) and developed with a solvent (n-hexane:diethyl ether:ethyl acetate:acetic acid=74:15:15:1). The developed TLC plate was dried, contacted with a BAS imaging plate (manufactured by FUJIFILM) and measured with BAS2500 (manufactured by FUJIFILM) 16 hr later to numerically show the amount of [^14C]-triglyceride (TG amount) produced during the reaction. The inhibitory rate was calculated by the following formula:
Inhibitory rate (%)=(1−(TG amount in the case with addition of test compound−blank TG amount)/(control TG amount−blank TG amount))×100
The count of the triglyceride produced in the solution reacted without addition of the test compound was used as a “control TG amount”, and the count of the triglyceride produced in the solution reacted without addition of the test compound and DGAT1 high expression Sf9 microsome was used as a “blank TG amount”.
One may read the IC50 as the midpoint of a concentration-inhibition curve. Consider `CCOc1cc(NC(=O)CCC(=O)c2ccc(OCC)c(OCC)c2)nc(-c2ccccc2)c1` [Example 40, 4-(3,4-diethoxyphenyl)-N-(4-ethoxy-6-phenylpyridin-2-yl)-4-oxobutanamide], for which the IC50 fell in the range of 50 to 500 nM.
The same measure, in the same setting: in the case of `CCOc1ccc(C(=O)CCC(=O)Nc2cc(-c3ccc(F)cc3)cc(-c3ccccc3)n2)cc1OCC` [Example 43, 4-(3,4-diethoxyphenyl)-N-(4-(4-fluorophenyl)-6-phenylpyridin-2-yl)-4-oxobutanamide] it was 50 to 500 nM.
Same read-out and setting: in the case of `COc1cc2c(cc1C(=O)CCC(=O)Nc1nc(-c3ccccc3)c(Cc3ccccc3)s1)CCCC2` [Example 29, N-(5-benzyl-4-phenyl-1,3-thiazol-2-yl)-4-(3-methoxy-5,6,7,8-tetrahydronaphthalen-2-yl)-4-oxobutanamide] it was 10 to 50 nM; in that of `CCOc1ccc(C(=O)CCC(=O)Nc2cc(OCc3ccccc3)cc(-c3ccccc3)n2)cc1OCC` [Example 42, 4-(3,4-diethoxyphenyl)-N-(4-(benzyloxy)-6-phenylpyridin-2-yl)-4-oxobutanamide], 50 to 500 nM; in that of `CCOc1ccc(C(=O)CCC(=O)Nc2cc(-c3ccccc3)c(Cc3ccc(Br)cc3)s2)cc1OCC` [Example 47, N-[5-(4-bromobenzyl)-4-phenyl-2-thienyl]-4-(3,4-diethoxyphenyl)-4-oxobutanamide], 10 to 50 nM.
For the compound `CCOc1ccc(C(=O)CCC(=O)Nc2cc(-c3ccccc3)c(Cc3ccccc3)s2)cc1OCC` [Example 17, N-(5-benzyl-4-phenyl-2-thienyl)-4-(3,4-diethoxyphenyl)-4-oxobutanamide], the IC50 lay within 10 to 50 nM.

The same assay, now with this note: Table 2, 25 μM dioleoylglycerol, 25 μM [14C]-Oleoyl-CoA, 32° C., 15 min, read-out: DGAT inhibitory activity (according to IC50).
With `O=C(O)CCc1cccc(-c2cc(NC(=O)CCC(=O)c3ccc4c(c3)CCO4)nc(-c3ccccc3)c2)c1` [Example 172, 3-[3-(2-{[4-(2,3-dihydro-1-benzofuran-5-yl)-4-oxobutanoyl]amino}-6-phenylpyridin-4-yl)phenyl]propanoic acid], the IC50 was in the range of 500 to 10000 nM.
The same measure, in the same setting: in the case of `COC(=O)CCc1cccc(-c2cc(NC(=O)CCC(=O)c3ccc4c(c3)CCO4)nc(-c3ccccc3)c2)c1` [Example 173, methyl 3-[3-(2-{[4-(2,3-dihydro-1-benzofuran-5-yl)-4-oxobutanoyl]amino}-6-phenylpyridin-4-yl)phenyl]propanoate] it was 10 to 50 nM; in that of `Cc1cc(-c2cc(NC(=O)CCC(=O)c3ccc4c(c3)CCO4)nc(-c3ccccc3)c2)cc(C)c1O` [Example 183, 4-(2,3-dihydro-1-benzofuran-5-yl)-N-[4-(4-hydroxy-3,5-dimethylphenyl)-6-phenylpyridin-2-yl]-4-oxobutanamide], 50 to 500 nM; in that of `COc1cc(-c2cc(NC(=O)CCC(=O)c3ccc4c(c3)CCO4)nc(-c3ccccc3)c2)cc(OC)c1OC` [Example 182, 4-(2,3-dihydro-1-benzofuran-5-yl)-4-oxo-N-[6-phenyl-4-(3,4,5-trimethoxyphenyl)pyridin-2-yl]butanamide], 500 to 10000 nM.
With `CCOc1ccc(C(=O)CCC(=O)Nc2cc(-c3cccc(CC#N)c3)cc(-c3ccccc3)n2)cc1OCC` [Example 133, N-{4-[3-(cyanomethyl)phenyl]-6-phenylpyridin-2-yl}-4-(3,4-diethoxyphenyl)-4-oxobutanamide], the concentration for half-maximal inhibition (IC50) fell in the range of 10 to 50 nM.
The same measure, in the same setting: then `O=C(CCC(=O)c1ccc2c(c1)CCCC2)Nc1cc(-c2ccccc2)c(Cc2ccccc2)s1` [Example 99, N-(5-benzyl-4-phenyl-2-thienyl)-4-oxo-4-(5,6,7,8-tetrahydronaphthalen-2-yl)butanamide], with 50 to 500 nM; and `CCCCOc1cccc(-c2cc(NC(=O)CCC(=O)c3ccc(OCC)c(OCC)c3)nc(-c3ccccc3)c2)c1` [Example 135, N-[4-(3-butoxyphenyl)-6-phenylpyridin-2-yl]-4-(3,4-diethoxyphenyl)-4-oxobutanamide], with 500 to 10000 nM; and `O=C(CCC(=O)c1ccc2c(c1)OCCO2)Nc1nc(-c2ccccc2)c(Cc2ccccc2)s1` [Example 67, N-(5-benzyl-4-phenyl-1,3-thiazol-2-yl)-4-(2,3-dihydro-1,4-benzodioxin-6-yl)-4-oxobutanamide], with 50 to 500 nM.
Take `CCOc1ccc(C(=O)CCC(=O)Nc2cc(-c3cccc(CCC(=O)OC)c3)cc(-c3ccccc3)n2)cc1OCC` [Example 142, methyl 3-[3-(2-{[4-(3,4-diethoxyphenyl)-4-oxobutanoyl]amino}-6-phenylpyridin-4-yl)phenyl]propanoate]: the half-maximal inhibitory concentration (IC50) fell in the range of 50 to 500 nM.
On to `CCOc1ccc(C(=O)CCC(=O)Nc2cc(-c3cccc(OC)c3)cc(-c3ccccc3)n2)cc1OCC` [Example 106, 4-(3,4-diethoxyphenyl)-N-[4-(3-methoxyphenyl)-6-phenylpyridin-2-yl]-4-oxobutanamide], for which the IC50 was in the range of 50 to 500 nM.
On to `CCOc1cccc(C(=O)CCC(=O)Nc2cc(-c3ccccc3)cc(-c3ccccc3)n2)c1` [Example 103, N-(4,6-diphenylpyridin-2-yl)-4-(3-ethoxyphenyl)-4-oxobutanamide], for which the half-maximal inhibitory concentration (IC50) lay in the range of 500 to 10000 nM.
The same measure, in the same setting: then `CC(=O)c1cccc(-c2cc(NC(=O)CCC(=O)c3ccc4c(c3)CCO4)nc(-c3ccccc3)c2)c1` [Example 171, N-[4-(3-acetylphenyl)-6-phenylpyridin-2-yl]-4-(2,3-dihydro-1-benzofuran-5-yl)-4-oxobutanamide], with 50 to 500 nM; and `CCOc1ccc(C(=O)CCC(=O)Nc2cc(-c3ccccc3)c3ccc(/C=C/C#N)cc3n2)cc1OCC` [Example 86, N-{7-[(E)-2-cyanovinyl]-4-phenylquinolin-2-yl}-4-(3,4-diethoxyphenyl)-4-oxobutanamide], with 10 to 50 nM.
Still for that read-out and setting: then `CCOc1ccc(C(=O)CCC(=O)Nc2cc(-c3ccccc3)c3ccc(Br)cc3n2)cc1OCC` [Example 81, N-(7-bromo-4-phenylquinolin-2-yl)-4-(3,4-diethoxyphenyl)-4-oxobutanamide], with 50 to 500 nM; and `CCOc1ccc(C(=O)CCC(=O)Nc2cc(-c3ccccc3OC)cc(-c3ccccc3)n2)cc1OCC` [Example 146, 4-(3,4-diethoxyphenyl)-N-[4-(2-methoxyphenyl)-6-phenylpyridin-2-yl]-4-oxobutanamide], with ≤ 10 nM; and `CCOc1ccc(C(=O)CCC(=O)Nc2cc(-c3cccc(OC)c3)c3ccccc3n2)cc1OCC` [Example 80, 4-(3,4-diethoxyphenyl)-N-[4-(3-methoxyphenyl)quinolin-2-yl]-4-oxobutanamide], with 10 to 50 nM.
As to `CCOc1ccc(C(=O)CCC(=O)Nc2cc(-c3ccc(C)cc3)c3cc(/C=C/C(=O)OC(C)(C)C)ccc3n2)cc1OCC` [Example 78, tert-butyl (2E)-3-[2-{[4-(3,4-diethoxyphenyl)-4-oxobutanoyl]amino}-4-(4-methylphenyl)quinoline-6-yl]acrylate], the IC50 lay within 50 to 500 nM.
In the case of `CCOc1ccc(C(=O)CCC(=O)Nc2cc(-c3cccc(C(C)=O)c3)cc(-c3ccccc3)n2)cc1OCC` [Example 140, N-[4-(3-acetylphenyl)-6-phenylpyridin-2-yl]-4-(3,4-diethoxyphenyl)-4-oxobutanamide], the IC50 was in the range of 50 to 500 nM.
Still for that read-out and setting: then `COc1ccc(-c2cc(NC(=O)CCC(=O)c3ccc4c(c3)CCO4)nc(-c3ccccc3)c2)cc1` [Example 155, 4-(2,3-dihydro-1-benzofuran-5-yl)-N-[4-(4-methoxyphenyl)-6-phenylpyridin-2-yl]-4-oxobutanamide], with 50 to 500 nM.
